# Results reported in US12344599B2, “Prodigiosin analogs and methods of use” (Institute For Cancer Research, priority 2016, dated 2025).
# How the values were obtained:
# [1] = tested on: CAL-27; test: CellTiterGlo cell viability assay, CAL-27; type: cell-based; details: Homo sapiens; CAL-27, head & neck squamous cell carcinoma, p53 H193L, 72 hours
# Protocol: (§1) • 1) Cell lines: HT29, SW480, DLD-1, HCT116, and p53-null HCT116 cells, H1975, MDA-MD-231, U251, FaDu, CAL-27, PANC-1, Aspc-1, and MRC5 were obtained from the ATCC and cultured as recommended. Cells were regularly authenticated by bioluminescence, growth, and morphologic observation. The cells were routinely examined for Mycoplasma and all cell lines underwent STR authentication. • 2) Western blotting: After treatment, protein lysates were collected for Western blot analysis. 15 μg of protein was used for SDS-PAGE. After primary and secondary antibody incubations, the signal was detected by chemiluminescent detection kit, imaged by Syngene (Imgen Technologies). […] The cell viability was assessed by CellTiterGlo bioluminescent cell proliferation assay (Promega), following the manufacturer's protocol. Bioluminescence imaging was measured using the IVIS imager. Percentage of cell viability (mean±SEM) at each dose was calculated against the respective DMSO control. The IC50 values were determined from the sigmoidal dose-response curves using GraphPad Prims4. • 4) Caspase activity assay: Cells were seeded in 96-well plate (1×10^4 cells/well). […] The caspase 3/7 activity was assessed by Caspase-Glo® 3/7 Assay kit (Promega), following the manufacturer's protocol. Bioluminescence imaging was measured using the IVIS imager. […]
# [2] = tested on: HT29 cells; test: Western blot of apoptosis markers and PUMA, HT29; type: cell-based, human
# Protocol: as §1
compound,measurement,setting,value
"CCCCCCCCOC(=O)CCc1c(C)[nH]c(/C=C2\N=C(c3ccc[nH]3)C=C2OC)c1C [PG3-Oc, Octyl (Z)-3-(5-((4′-methoxy-1H,5′H-[2,2′-bipyrrol]-5′-ylidene)methyl)-2,4-dimethyl-1H-pyrrol-3-yl)propanoate]",IC50,[1],0.0339 µM
same,time at which PUMA protein was first induced post treatment,"[2]; HT29, time-course",16 h
same,concentration sufficient to activate cleaved caspase-8 and -3 and cleaved-PARP,[2]; western blot,0.5 µM
